From ChEMBL document CHEMBL1201862, “PubChem BioAssay data set” (2004)
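Values below derive from 48-hour exposures of cells grown in 96-well plates, with endpoints linearly interpolated between the two concentrations bracketing the appropriate inhibition level. At the GI50, growth is halved.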 Active and inactive are the calls of the source. Cut-off read from the data, not from the text of the source: active = GI50 up to about 1.1 µM and inactive = higher.

Assays:
Assay in all cases: growth of human tumour cells (NCI), 48 h
[1] = system: KM12
[2] = system: RPMI-8226
[3] = system: COLO 205
[4] = system: SK-MEL-5
[5] = system: SNB-75
[6] = system: MDA-MB-435
[7] = system: MCF7
[8] = system: RXF 393
[9] = system: UACC-62
[10] = system: A549
[11] = system: SF-539
[12] = system: OVCAR-3
[13] = system: UACC-257
[14] = system: U-251
[15] = system: OVCAR-5
[16] = system: SW-620
[17] = system: HL-60
[18] = system: TK-10
[19] = system: SK-MEL-2
[20] = system: UO-31

SMILES | GI50 [1] | GI50 [2] | GI50 [3] | GI50 [4] | GI50 [5] | GI50 [6] | GI50 [7] | GI50 [8] | GI50 [9] | GI50 [10] | GI50 [11] | GI50 [12] | GI50 [13] | GI50 [14] | GI50 [15] | GI50 [16] | GI50 [17] | GI50 [18] | GI50 [19] | GI50 [20]
O=C(O)c1cccc(C(=O)O)c1[S+]([O-])Cc1ccccc1 (stereo not given) | > 100 µM (inactive) | > 100 µM (inactive) | > 100 µM (inactive) | > 100 µM (inactive) | > 100 µM (inactive) | > 100 µM (inactive) | > 100 µM (inactive) | > 100 µM (inactive) | > 100 µM (inactive) | > 100 µM (inactive) | > 100 µM (inactive) | > 100 µM (inactive) | > 100 µM (inactive) | > 100 µM (inactive) | > 100 µM (inactive) | > 100 µM (inactive) | > 100 µM (inactive) | > 100 µM (inactive) | > 100 µM (inactive) | > 100 µM (inactive)
CC1=C(C(=O)NC2CCCCC2)CC(C(=O)NC2CCCCC2)=C(C)N1 | > 100 µM (inactive) | > 100 µM (inactive) | > 100 µM (inactive) | > 100 µM (inactive) | 13.7 µM (inactive) | > 100 µM (inactive) | > 100 µM (inactive) | > 100 µM (inactive) | > 100 µM (inactive) | > 100 µM (inactive) | > 100 µM (inactive) | > 100 µM (inactive) | > 100 µM (inactive) | > 100 µM (inactive) | > 100 µM (inactive) | > 100 µM (inactive) | 71.6 µM (inactive) | 39.2 µM (inactive) | > 100 µM (inactive) | > 100 µM (inactive)
O=C(CCCl)NN=C1NCCCN1 | > 100 µM (inactive) | > 100 µM (inactive) | > 100 µM (inactive) | > 100 µM (inactive) | > 100 µM (inactive) | > 100 µM (inactive) | > 100 µM (inactive) | > 100 µM (inactive) | > 100 µM (inactive) | > 100 µM (inactive) | > 100 µM (inactive) | > 100 µM (inactive) | > 100 µM (inactive) | > 100 µM (inactive) | > 100 µM (inactive) | > 100 µM (inactive) | > 100 µM (inactive) | > 100 µM (inactive) | > 100 µM (inactive) | > 100 µM (inactive)
Cc1ccc2c(c1C)C(=O)/C(=C/c1ccccc1C(=O)O)C2 | > 100 µM (inactive) | 45.3 µM (inactive) | > 100 µM (inactive) | 42.3 µM (inactive) | > 100 µM (inactive) | > 100 µM (inactive) | > 100 µM (inactive) | > 100 µM (inactive) | > 100 µM (inactive) | > 100 µM (inactive) | > 100 µM (inactive) | > 100 µM (inactive) | > 100 µM (inactive) | > 100 µM (inactive) | > 100 µM (inactive) | > 100 µM (inactive) | > 100 µM (inactive) | > 100 µM (inactive) | > 100 µM (inactive) | > 100 µM (inactive)
COC(=O)CCc1cc(O)c2c(c1)C(C(=O)OC)C(c1ccc(O)c(O)c1)O2 (stereo not given) | 3.88 µM (inactive) | 22 µM (inactive) | 31.4 µM (inactive) | 4.06 µM (inactive) | 2.35 µM (inactive) | 1.48 µM (inactive) | 4.79 µM (inactive) | 18.7 µM (inactive) | 8.15 µM (inactive) | 43.4 µM (inactive) | 9.64 µM (inactive) | 3.71 µM (inactive) | > 48.2 µM (inactive) | 11.8 µM (inactive) | > 65.5 µM (inactive) | 6.17 µM (inactive) | 2.55 µM (inactive) | 53.1 µM (inactive) | 3.39 µM (inactive) | 26.2 µM (inactive)
COc1ccc2cc(CNCCCCCCNCc3ccc4cc(OC)ccc4c3)ccc2c1 | 0.221 µM (active) | 0.208 µM (active) | 0.154 µM (active) | 1.33 µM (inactive) | 0.815 µM (active) | 0.204 µM (active) | 0.319 µM (active) | 1.52 µM (inactive) | 1.46 µM (inactive) | 1.86 µM (inactive) | 1.51 µM (inactive) | 0.575 µM (active) | 1.83 µM (inactive) | 0.231 µM (active) | 0.885 µM (active) | 0.182 µM (active) | 0.181 µM (active) | 1.8 µM (inactive) | 1.24 µM (inactive) | 1.63 µM (inactive)
CN1N=C(c2ccncc2)OC1c1ccc(Cl)cc1Cl (stereo not given) | > 100 µM (inactive) | 72.8 µM (inactive) | 36.1 µM (inactive) | 65.6 µM (inactive) | 12.6 µM (inactive) | 63.7 µM (inactive) | > 100 µM (inactive) | > 100 µM (inactive) | 22.8 µM (inactive) | > 100 µM (inactive) | 44.5 µM (inactive) | 64.3 µM (inactive) | > 100 µM (inactive) | > 100 µM (inactive) | > 100 µM (inactive) | > 100 µM (inactive) | 41.2 µM (inactive) | > 100 µM (inactive) | > 100 µM (inactive) | 93.5 µM (inactive)
c1cc2c(ncc3cscc32)s1 | > 100 µM (inactive) | > 100 µM (inactive) | > 100 µM (inactive) | > 100 µM (inactive) | > 52.6 µM (inactive) | > 100 µM (inactive) | > 100 µM (inactive) | > 79.3 µM (inactive) | > 31.6 µM (inactive) | > 100 µM (inactive) | > 100 µM (inactive) | > 100 µM (inactive) | > 100 µM (inactive) | > 87.3 µM (inactive) | > 89.5 µM (inactive) | > 100 µM (inactive) | > 100 µM (inactive) | > 100 µM (inactive) | > 100 µM (inactive) | > 70.6 µM (inactive)
CCCC(=O)Oc1c2ccsc2c(OC(=O)CCC)c2ccsc12 | 7.64 µM (inactive) | 1.41 µM (inactive) | 10.9 µM (inactive) | 0.804 µM (active) | 1.83 µM (inactive) | 0.305 µM (active) | 2.23 µM (inactive) | 3.05 µM (inactive) | 1.14 µM (inactive) | 3.94 µM (inactive) | 0.982 µM (active) | 1.07 µM (active) | 0.92 µM (active) | 1.36 µM (inactive) | 2.76 µM (inactive) | 1.63 µM (inactive) | 1.08 µM (active) | 4.48 µM (inactive) | 1.09 µM (active) | 2.53 µM (inactive)
C=C1c2nc3ccccc3n2C=C(c2ccc(Cl)cc2)N1c1ccc(OC)cc1 | 6.81 µM (inactive) | 14.5 µM (inactive) | 21.8 µM (inactive) | 6.53 µM (inactive) | 2.67 µM (inactive) | 8.28 µM (inactive) | 7.4 µM (inactive) | 10.1 µM (inactive) | 13 µM (inactive) | 10.9 µM (inactive) | 5.87 µM (inactive) | 10.8 µM (inactive) | 5.07 µM (inactive) | 8.38 µM (inactive) | 17.4 µM (inactive) | 17.7 µM (inactive) | 76.7 µM (inactive) | 4.82 µM (inactive) | 22.9 µM (inactive) | 6.38 µM (inactive)
COC(=O)[C@]12CC[C@H]3CN(C(=O)OCc4ccccc4)[C@H]([C@H]31)[C@H](c1ccccc1)N2 | 72.6 µM (inactive) | 36.1 µM (inactive) | 92.9 µM (inactive) | 22.9 µM (inactive) | > 100 µM (inactive) | 52 µM (inactive) | 67.6 µM (inactive) | 59.6 µM (inactive) | 55 µM (inactive) | 54.7 µM (inactive) | > 100 µM (inactive) | 74.1 µM (inactive) | 39.5 µM (inactive) | > 100 µM (inactive) | > 100 µM (inactive) | > 100 µM (inactive) | 39.6 µM (inactive) | > 100 µM (inactive) | 59.7 µM (inactive) | 67.3 µM (inactive)
CC12Nc3c(Cl)cc(Cl)cc3N1C(=O)c1ccccc12 (stereo not given) | > 100 µM (inactive) | > 100 µM (inactive) | > 100 µM (inactive) | > 100 µM (inactive) | > 100 µM (inactive) | > 100 µM (inactive) | > 100 µM (inactive) | 78.3 µM (inactive) | > 100 µM (inactive) | > 100 µM (inactive) | > 100 µM (inactive) | > 100 µM (inactive) | > 100 µM (inactive) | > 100 µM (inactive) | > 100 µM (inactive) | > 100 µM (inactive) | 51.6 µM (inactive) | 42.2 µM (inactive) | > 100 µM (inactive) | 52.7 µM (inactive)
CSc1c(C#N)c(N)n(-c2ccc(C)cc2)c(=O)c1C#N | > 100 µM (inactive) | > 100 µM (inactive) | > 100 µM (inactive) | > 100 µM (inactive) | > 100 µM (inactive) | > 100 µM (inactive) | > 100 µM (inactive) | > 100 µM (inactive) | > 100 µM (inactive) | > 100 µM (inactive) | > 100 µM (inactive) | > 100 µM (inactive) | > 100 µM (inactive) | > 100 µM (inactive) | > 100 µM (inactive) | > 100 µM (inactive) | > 100 µM (inactive) | > 100 µM (inactive) | > 100 µM (inactive) | 50.4 µM (inactive)
NC(=O)c1[nH]nc(C2OC(CO)C(O)C2O)c1O (stereo not given) | 10.4 µM (inactive) | 0.682 µM (active) | 16 µM (inactive) | 64.3 µM (inactive) | 101 µM (inactive) | 15.7 µM (inactive) | 1.79 µM (inactive) | 8.99 µM (inactive) | 4.38 µM (inactive) | 0.6 µM (active) | 16.9 µM (inactive) | 19.6 µM (inactive) | 966 µM (inactive) | 1.38 µM (inactive) | 183 µM (inactive) | 0.55 µM (active) | 0.724 µM (active) | 91.6 µM (inactive) | 84.7 µM (inactive) | 4.01 µM (inactive)
